Activity calls are given as the source filed them. The calls are words filed in the database; no cut-off is given here.
Legend:
[1] = target: T1, Beta-galactosidase (Bos taurus, UniProt Q58D55); test: Inhibition of bovine liver beta-galactosidase by spectrometry
T1 sequence (Q58D55 whole entry): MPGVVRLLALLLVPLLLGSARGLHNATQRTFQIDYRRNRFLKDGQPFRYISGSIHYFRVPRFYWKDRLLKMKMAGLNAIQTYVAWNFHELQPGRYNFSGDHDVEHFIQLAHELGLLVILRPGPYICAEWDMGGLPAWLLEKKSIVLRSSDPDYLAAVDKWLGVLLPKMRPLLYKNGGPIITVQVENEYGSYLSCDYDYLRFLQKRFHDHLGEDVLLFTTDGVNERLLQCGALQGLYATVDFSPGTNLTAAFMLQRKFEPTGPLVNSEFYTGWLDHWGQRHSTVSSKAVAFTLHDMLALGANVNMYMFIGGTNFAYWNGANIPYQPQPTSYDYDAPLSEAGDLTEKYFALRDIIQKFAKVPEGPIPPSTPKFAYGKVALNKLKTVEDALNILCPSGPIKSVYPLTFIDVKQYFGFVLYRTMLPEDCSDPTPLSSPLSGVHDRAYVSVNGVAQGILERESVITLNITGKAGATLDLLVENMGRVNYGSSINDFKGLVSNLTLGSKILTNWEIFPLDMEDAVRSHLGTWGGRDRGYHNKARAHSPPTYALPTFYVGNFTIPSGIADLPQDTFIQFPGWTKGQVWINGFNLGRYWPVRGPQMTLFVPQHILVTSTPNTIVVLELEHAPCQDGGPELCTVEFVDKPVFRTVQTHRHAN

[2] = (§1) Inhibition of almonds beta-glucosidase by spectrometry; parameters: species or system Prunus dulcis
[3] = target: Alpha-galactosidase (Coffea arabica, UniProt Q42656); test: Inhibition of green coffee beans alpha-galactosidase by spectrometry
[4] = target: T2, Beta-galactosidase (Aspergillus oryzae, UniProt Q2U7N3); test: Inhibition of Aspergillus oryzae beta-galactosidase by spectrometry
T2 sequence (Q2U7N3 whole entry): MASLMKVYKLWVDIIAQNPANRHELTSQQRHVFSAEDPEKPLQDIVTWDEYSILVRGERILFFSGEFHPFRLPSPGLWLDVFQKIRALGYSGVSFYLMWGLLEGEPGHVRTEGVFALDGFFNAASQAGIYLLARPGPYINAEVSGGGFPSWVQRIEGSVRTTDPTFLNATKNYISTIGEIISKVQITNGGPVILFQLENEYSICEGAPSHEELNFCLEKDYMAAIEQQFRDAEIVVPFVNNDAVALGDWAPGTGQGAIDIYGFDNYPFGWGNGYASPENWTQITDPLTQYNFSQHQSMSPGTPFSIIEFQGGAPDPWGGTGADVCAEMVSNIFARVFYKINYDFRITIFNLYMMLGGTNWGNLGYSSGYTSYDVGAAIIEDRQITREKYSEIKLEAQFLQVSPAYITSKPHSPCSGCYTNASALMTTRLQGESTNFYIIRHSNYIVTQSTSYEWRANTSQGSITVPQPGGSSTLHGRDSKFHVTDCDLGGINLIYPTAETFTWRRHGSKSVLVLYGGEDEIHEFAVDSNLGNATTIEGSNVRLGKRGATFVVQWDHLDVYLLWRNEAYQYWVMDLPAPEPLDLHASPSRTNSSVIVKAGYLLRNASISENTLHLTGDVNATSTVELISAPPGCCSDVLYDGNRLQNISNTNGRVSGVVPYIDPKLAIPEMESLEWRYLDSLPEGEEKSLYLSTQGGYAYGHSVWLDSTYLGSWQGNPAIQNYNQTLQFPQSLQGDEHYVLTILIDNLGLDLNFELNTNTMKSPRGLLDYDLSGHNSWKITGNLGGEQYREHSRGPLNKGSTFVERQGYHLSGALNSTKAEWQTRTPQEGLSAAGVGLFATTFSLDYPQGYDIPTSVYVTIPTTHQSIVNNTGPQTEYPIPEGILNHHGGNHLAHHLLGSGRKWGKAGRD

[5] = test system: Prunus dulcis; test: as §1
[6] = test system: Helix pomatia; test: Inhibition of helix pomatia beta-mannosidase by spectrometry
[7] = species: Homo sapiens; test: Inhibition of human placental alpha-fucosidase by spectrometry
[8] = test system: Canavalia ensiformis; test: Inhibition of jack beans alpha-mannosidase by spectrometry

Chain of Alpha-galactosidase (Q42656 whole entry): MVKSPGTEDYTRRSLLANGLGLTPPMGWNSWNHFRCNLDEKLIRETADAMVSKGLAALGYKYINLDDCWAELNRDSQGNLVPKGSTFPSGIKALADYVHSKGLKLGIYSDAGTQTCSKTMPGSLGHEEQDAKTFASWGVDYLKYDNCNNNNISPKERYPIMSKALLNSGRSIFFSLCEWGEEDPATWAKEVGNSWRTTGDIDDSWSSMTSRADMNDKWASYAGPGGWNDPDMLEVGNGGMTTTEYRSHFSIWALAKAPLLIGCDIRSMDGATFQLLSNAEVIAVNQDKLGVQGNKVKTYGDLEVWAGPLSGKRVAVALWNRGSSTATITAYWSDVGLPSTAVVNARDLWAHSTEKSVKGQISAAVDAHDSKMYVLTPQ

Structure (SMILES) | IC50 [1] | IC50 [2] | IC50 [3] | IC50 [4] | inhibition [5] | inhibition [6] | inhibition [7] | inhibition [8]
CCCCCCCCN[C@@H]1C=C(CO)[C@@H](O)[C@H](O)[C@H]1O | 2.9 µM | 47 µM | > 1000 µM |  |  |  |  | 
CCCCCCCCN[C@@H]1C=C(CO)[C@H](O)[C@H](O)[C@H]1O | 4.5 µM | 8.1 µM | 4.5 µM | 85 µM | Active | inactive | inactive | inactive

From ChEMBL document CHEMBL1921711, “Transformation of quercitols into 4-methylenecyclohex-5-ene-1,2,3-triol derivatives, precursors for the chemical chaperones N-octyl-4-epi-β-valienamine (NOEV) and N-octyl-β-valienamine (NOV)” (Bioorg Med Chem Lett, 2011)
